# Laboratory results published in US20050239205A1, “Gb virus b based replicons and replicon enhanced cells” (priority 2002, published 2005).
# What was measured:
# GBV-B virus = assay: Infection of enhanced cells with GBV-B virus-containing serum by electroporation (Taqman); type: cell-based
# Protocol: GBV-B virus inoculum produced upon passage of virus in tamarins was used to infect Huh7 and cB76.1/Huh7 enhanced cells. GBV-B containing tamarin serum was layered onto 10^5 cells in multiwell-6-wells 1 day after plating at multiplicity of infection of 0.75 G.E./cell. After 6 hours adsorption, the virus-containing serum was removed, the cells extensively washed and incubated in the serum-free DMEM. Cells from individual wells were lyzed with Trizol at different times and GBV-B RNA quantified by Taqman.
# As an alternative method, 10^6 cells were mixed with undiluted virus-containing serum (10^6 G.E.) and subjected to electroporation. The cells were plated at a density of 10^5/well and treated as described for experiments of RNA electroporation. Duplicate wells were run in parallel, with and without interferon. Cells from individual wells were lyzed with Trizol at different times and GBV-B RNA quantified by Taqman. The amount of G.E. detectable immediately after electroporation and wash was 10^3 G.E., it was undetectable at 24 and 48 hours, at day 3 it was 10^4 G.E.; at day 6 it was 5×10^3 (possibly inhibition due to cell density); in corresponding wells treated with interferon the RNA was undetectable. […] RNA was quantified at day 13 and 16 giving a figure corresponding to 4×10^3 G.E. and 1.2×10^4 G.E. respectively. […]
# GBV-B replicon = assay: Effect of test compound on GBV-B replicon RNA in B76.1/Huh7 cells (TaqMan, neo primer set); type: cell-based
# Protocol: (§1) Huh7 cell clones carrying GBV-B or HCV replicons were used to test the effect of human interferon alpha-2b. Cells (1×10^5) were plated into each well of a series of wells of Multiwell-6-wells plates (falcon cat N. 35-3046) in medium without G418. After 16 hours the medium was discarded and increasing concentrations of the test compound in fresh medium were added to each series of wells. Controls were run using the specific compound solvent at the appropriate dilution.
# […] Total RNA was purified as described in the TRizol protocol (Life Technologies). Ten out of 100 μl of total RNA were used in each reaction.
# (§2) Taq Man analysis was performed using a neomycin primer set (taq NEO 1, GATGGATTGCACGCAGGTT (SEQ. ID. NO. 17), and taq NEO 5, […] (SEQ. ID. NO. 18)) and a NEO probe (1,6-carboxyfluorescein-TCCGGCCGCTTGGGT GGAG (SEQ. ID. NO. 19)-N,N,N′,N′-tetramethyl-6-carboxyrhodamine). Human GAPDH mRNA quantified with a specific primer set (PE Applied Biosystems) was used as an endogenous reference. GBV-B RNA extracted from mock-treated cells was used as a calibrator. Results from two independent experiments were analyzed using both the Comparative Ct Method and the standard curve method.
# Experiments were performed using 10^5 cells of B76.1/Huh7 and 10A plated into individual wells of 6-multiwell plate and incubated overnight in the absence of G418. […]
# RepB replication = assay: beta-lactamase stain of bla-RepB transfected cB76.1/Huh7 cells; type: cell-based, GBV-B
# Protocol: Immediately after electric pulses cells were diluted in 8 ml complete Dulbecco's Modified Eagle Medium (DMEM) and processed with different protocols depending on the selection/tracer used. In the case of neo-constructs transformation, cells were divided in 3 plates of 15 cm diameter and on the following day the selecting antibiotic G418 (Sigma G-9516) was added at a concentration of 0.250, 0.5 or 1 mg/ml. […] Surviving clones were picked-up and expanded by growing them in individual plates. When a bla reporter gene was used, 1.5 ml, 1.0 ml and 0.5 ml of transfected cells suspension were plated in each well of Multiwell-6-wells plate (Falcon cat. N. 35-3046) to be stained respectively at 24, 48 and 72 hours.
# Aurora substrate system “CCF4” was used to measure β-lactamase activity. When quantitative PCR was used to measure transient replication, cells were plated 1-2×10^5/well in “6-multi-well plate”. After 3 days total RNA was purified as described in the TRIzol protocol (Life Technologies) and 10 out of 100 μl of total RNA were used in individual TaqMan reactions.
# The increased efficiency of replication of RepB RNA in cB76.1/Huh7 cells compared to wild type Huh7 cells was also monitored using a colorimetric assay after transfection of RNA transcribed from bla-RepB plasmid. The bla-RepB plasmid expresses a […] marker in place of the selector neomycin phosphotransferase. […]
# HCV replicon = assay: Effect of test compound on HCV replicon RNA in 10A Huh7 cells (TaqMan, neo primer set); type: cell-based; details: 10A cells (HCV replicon in Huh7), up to 3 days, replicon RNA normalized to GAPDH
# Protocol: as §1
# Cells were grown up to 3 days in the presence of compounds or compound solvent without a compound, avoiding cell confluence, and finally lysed with TRIzol. Total RNA was purified as described in the TRizol protocol (Life Technologies). Ten out of 100 μl of total RNA were used in each reaction.
# as §2, with “method. […]” for “method.”
# [1] = tested on: GBV-B full-length genomic FL3 RNA; assay: Replication of full-length GBV-B FL3 RNA transfected in cB76.1/Huh7 enhanced cells (Taqman); type: cell-based
# From the text: GBV-B RNA was quantified by a real-time 5′ exonuclease PCR (TaqMan) assay using a primer/probe set that recognized a portion of the GBV-B 5′UTR. The primers (GBV-B-F3, GTAGGCGGCGGGACTCAT (SEQ. ID. NO. 14), and GBV-B-R3, TCAGGGCCATCCAAGTCAA (SEQ. ID NO. 15)) and probe (GBV-B-P3,6-carboxyfluorescein-[…] (SEQ. ID. NO. 16)-N,N,N′,N′-tetramethyl-6-carboxyrhodamine) were selected using the Primer Express software (PE Applied Biosystems). The fluorescent probe was obtained from PE Applied Biosystems. The primers were used at 10 pmol/50 μl reaction, and the probe was used at 5 pmol/50 μl reaction.
# PCR was were performed using a TaqMan Gold RT-PCR kit (PE Applied Biosystems). […]
# RNA transcribed from a plasmid containing the first 2000 nucleotides of the GBV-B genome was used as a standard to establish genome equivalents. […] RNA was quantified by absorbance at 260 nm and stored at −80° C.
# All reactions were run in duplicate by using the ABI Prism 7700 Sequence Detection System (PE Applied Biosystems). […] Results from two independent experiments were analyzed using both the Comparative Ct Method and the standard curve method.
# GBV-B full-length genomic FL3 RNA (EMBL accession number AJ277947) was transfected in Huh7 and in enhanced cells cB76.1/Huh7 in parallel with the corresponding GAA control. Intracellular GBV-B RNA was measured by Taqman in a time-course experiment.
substance,measurement,setting,value
human interferon alpha-2b [Human alpha-IFN],GBV-B RNA in cells cultivated in the presence of IFN,"GBV-B virus; after splits, points up to day 16",background signals
same,GBV-B RNA in treated wells,GBV-B virus; day 3 and day 6 after electroporation with virus-containing serum,undetectable
same,Replicon RNA after curing treatment,"GBV-B replicon; B76.1/Huh7, 100 U/ml for 15 days in the absence of neomycin, TaqMan at end of treatment",disappearance of the selectable RNA replicon molecules
same,IC50 on GBV-B replicon,"GBV-B replicon; B76.1/Huh7 cells, up to 3 days, replicon RNA normalized to GAPDH",0.45 U/ml
same,Number of blue cells,RepB replication,reduced the number of blue cells to background levels
same,IC50 on HCV replicon,HCV replicon,0.58 U/ml
same,Decrease of FL3 RNA amount,"[1]; cB76.1/Huh7 transfected with FL3, day 6",10-20 fold
same,Effect on GAA mutant RNA amount,"[1]; cB76.1/Huh7 transfected with mutant GAA construct, day 6",did not affect
